Laboratory results: US20050209278A1, “Piperidinyl- and piperazinyl-sulfonylmethyl hydroxamic acids and their use as protease inhibitors” (priority 2002, published 2005)

Biological target: T1, MMP-1 (Homo sapiens, UniProt P03956)
T1 construct: made in house; host or cells: MMP-1-transfected HT-1080 cells (spent media)
T1 sequence (P03956 100-469): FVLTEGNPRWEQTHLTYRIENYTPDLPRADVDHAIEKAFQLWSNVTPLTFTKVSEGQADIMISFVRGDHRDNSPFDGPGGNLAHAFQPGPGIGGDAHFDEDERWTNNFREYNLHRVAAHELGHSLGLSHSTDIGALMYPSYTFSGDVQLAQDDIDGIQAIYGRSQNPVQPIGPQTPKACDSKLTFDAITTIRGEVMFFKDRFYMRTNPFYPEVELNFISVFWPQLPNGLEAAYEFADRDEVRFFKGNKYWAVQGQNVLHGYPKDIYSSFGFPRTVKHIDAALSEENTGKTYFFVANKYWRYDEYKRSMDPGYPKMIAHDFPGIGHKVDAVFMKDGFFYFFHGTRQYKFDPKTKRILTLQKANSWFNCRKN
Assay: In vitro MMP inhibition, Ki determination (fluorogenic substrate II)
Format: biochemical
Details: value not in parenthesis; read-out: MMP-1 Ki

| SMILES | Ki |
| --- | --- |
| COCCN1CCC(C(=O)NO)(S(=O)(=O)N2CCN(c3nc4ccccc4o3)CC2)CC1 [Example 196] | > 10 µM |
| CCCCc1ccc(N2CCN(S(=O)(=O)C3(C(=O)NO)CCN(CCOC)CC3)CC2)cc1F [Example 173] | > 10 µM |
| COCCSc1ccc(N2CCN(S(=O)(=O)C3(C(=O)NO)CCOCC3)CC2)cc1 [Example 227] | 9.28 µM |
| CCCCOc1ccc(N2CCN(S(=O)(=O)C3(C(=O)NO)CCN(c4ccc5c(c4)OCO5)CC3)CC2)cc1 [Example 221] | > 10 µM |
| CCCCOc1ccc(N2CCN(S(=O)(=O)C3(C(=O)NO)CCN(C(=O)N4CCCCC4)CC3)CC2)cc1 [Example 243] | > 10 µM |
| COCCN1CCC(C(=O)NO)(S(=O)(=O)N2CCN(c3ccc(CCCCC(C)C)cc3)CC2)CC1 [Example 191] | > 10 µM |
| CCCCOc1ccc(N2CCN(S(=O)(=O)C3(C(=O)NO)CCN(c4ccsc4)CC3)CC2)cc1 [Example 223] | > 10 µM |
| O=C(NO)C1(S(=O)(=O)N2CCN(c3cnc(CCCC(F)(F)F)cn3)CC2)CCOCC1 [Example 209] | > 10 µM |
| O=C(NO)C1(S(=O)(=O)N2CCN(c3ccc(COCC(F)(F)C(F)(F)F)cc3)CC2)CCOCC1 [Example 70] | > 10 µM |
| CCCCOc1ccc(N2CCN(S(=O)(=O)C3(C(=O)NO)CCN(Cc4ncc[nH]4)CC3)CC2)cc1 [Example 247] | > 10 µM |
| CCCCOc1ccc(N2CCN(S(=O)(=O)C3(C(=O)NO)CCN(Cc4ccc(C)o4)CC3)CC2)cc1 [Example 246] | > 10 µM |
| CCCCOc1ccc(N2CCN(S(=O)(=O)C3(C(=O)NO)CCN(c4ccc(C#N)cc4)CC3)CC2)cc1 [Example 225] | > 10 µM |
| CCCCOc1ccc(N2CCN(S(=O)(=O)C3(C(=O)NO)CCN(c4ccc(OC)c(OC)c4)CC3)CC2)cc1 [Example 229] | > 10 µM |
| CCCCOc1ccc(N2CCN(S(=O)(=O)C3(C(=O)NO)CCN(C(=O)N(C(C)C)C(C)C)CC3)CC2)cc1 [Example 244] | > 10 µM |
| O=C(NO)C1(S(=O)(=O)N2CCN(c3ccc(OCC(F)(F)C(F)(F)F)cc3)CC2)CCOCC1 [Example 212] | 9.81 µM |
| O=C(NO)C1(S(=O)(=O)N2CCN(c3nncs3)CC2)CCOCC1 [Example 215] | > 10 µM |
| O=C(NO)C1(S(=O)(=O)N2CCN(c3ccc(Cl)nn3)CC2)CCOCC1 [Example 198] | 8.65 µM |

These reach a lower Ki. Values come first.

| Ki | SMILES |
| --- | --- |
| 3.25 µM | Cc1ccc(-c2ccc(N3CCN(S(=O)(=O)C4(C(=O)NO)CCOCC4)CC3)cc2)cc1 [Example 207] |
| 0.45 µM | O=C(NO)C1(S(=O)(=O)N2CCN(c3ccccn3)CC2)CCOCC1 [Example 169] |
| 2.31 µM | O=C(NO)C1(S(=O)(=O)N2CCN(c3ccc(OC(F)(F)C(F)F)cc3)CC2)CCSCC1 [Example 62] |
| 7.18 µM | CCc1ccc(N2CCN(S(=O)(=O)C3(C(=O)NO)CCN(CCOC)CC3)CC2)cc1 [Example 193] |
| 7.36 µM | O=C(NO)C1(S(=O)(=O)N2CCN(c3ccc(OC(F)(F)F)cc3)CC2)CCN(C2CC2)CC1 [Example 203] |
| 2.73 µM | COCCN1CCC(C(=O)NO)(S(=O)(=O)N2CCN(c3ccc(Br)cc3)CC2)CC1 [Example 201] |
| 0.493 µM | COc1ccc(-c2ccc(N3CCN(S(=O)(=O)C4(C(=O)NO)CCOCC4)CC3)nc2)cc1 [Example 61] |
| 2.98 µM | COCCN1CCC(C(=O)NO)(S(=O)(=O)N2CCN(c3ccccc3)CC2)CC1 [Example 195] |
